From patent US10047086B2, “Imidazopyridines and imidazopyrazines as LSD1 inhibitors” (Incyte Corporation, priority 2014, dated 2018)

These molecules were tested against LSD-1 enzyme (Homo sapiens (Human), UniProt O60341) (assay: LANCE LSD1/KDM1A demethylase assay (LSD1 histone demethylase biochemical assay)). Settings: 1 nM LSD-1 enzyme, 1 hour preincubation at 25° C., 0.4 μM Biotin-labeled Histone H3 peptide substrate.
Experimental: LSD1 Histone Demethylase Biochemical Assay
LANCE LSD1/KDM1A demethylase assay-10 μL of 1 nM LSD-1 enzyme (ENZO BML-SE544-0050) in the assay buffer (50 mM Tris, pH 7.5, 0.01% Tween-20, 25 mM NaCl, 5 mM DTT) were preincubated for 1 hour at 25° C. with 0.8 μL compound/DMSO dotted in black 384 well polystyrene plates. […] Reactions were stopped by addition of 10 μL 1× LANCE Detection Buffer (PerkinElmer CR97-100) supplemented with 1.5 nM Eu-anti-unmodified H3K4 Antibody (PerkinElmer TRF0404), and 225 nM LANCE Ultra Streptavidin (PerkinElmer TRF102) along with 0.9 mM Tranylcypromine-HCl (Millipore 616431). After stopping the reactions plates were incubated for 30 minutes and read on a PHERAstar FS plate reader (BMG Labtech).
Work on `COC(=O)N(C)Cc1ccc(-c2c(-c3ccc(C#N)cc3)nc(OC[C@@H]3CCCN(C)C3)c3cncn23)cc1F` [Example 48, methyl [4-(6-(4-cyanophenyl)-8-{[(3R)-1-methylpiperidin-3-yl]methoxy}imidazo[1,5-a]pyrazin-5-yl)-2-fluorobenzyl]methylcarbamate] yielded an IC50 of at most 50 nM.
`CN(C)C1CCN(c2nc(-c3ccc(C#N)cc3)c(-c3cnc4c(cnn4C)c3)n3cncc23)CC1` [Example 50, 4-[8-[4-(dimethylamino)piperidin-1-yl]-5-(1-methyl-1H-pyrazolo[3,4-b]pyridin-5-yl)imidazo[1,5-a]pyrazin-6-yl]benzonitrile] showed an IC50 of at most 50 nM.
Molecule `CN(C)C1CCN(c2nc(-c3ccc(C#N)cc3)c(-c3ccc4c(c3)oc(=O)n4C)n3cncc23)CC1` [Example 51, 4-[8-[4-(dimethylamino)piperidin-1-yl]-5-(3-methyl-2-oxo-2,3-dihydro-1,3-benzoxazol-6-yl)imidazo[1,5-a]pyrazin-6-yl]benzonitrile] has an IC50 of at most 50 nM.
`COc1ccc(-c2c(-c3ccc(C#N)cc3)nc(N3CCC(N(C)C)CC3)c3cncn23)cn1` [Example 53, 4-[8-[4-(dimethylamino)piperidin-1-yl]-5-(6-methoxypyridin-3-yl)imidazo[1,5-a]pyrazin-6-yl]benzonitrile] was tested, and the IC50 was at most 50 nM.
Molecule `CN(C)C1CCN(c2nc(-c3ccc(C#N)cc3)c(-c3ccc(N4CCCC4=O)nc3)n3cncc23)CC1` [Example 54, 4-{8-[4-(dimethylamino)piperidin-1-yl]-5-[6-(2-oxopyrrolidin-1-yl)pyridin-3-yl]imidazo[1,5-a]pyrazin-6-yl}benzonitrile] has an IC50 of at most 50 nM.
For `CN1CCC[C@@H](COc2cc(-c3ccc(C#N)cc3)c(-c3ccc4nccnc4c3)n3cncc23)C1` [Example 56, (R)-4-(8-((1-methylpiperidin-3-yl)methoxy)-5-(quinoxalin-6-yl)imidazo[1,5-a]pyridin-6-yl)benzonitrile], the IC50 was at most 50 nM.
Molecule `CN1CCC[C@@H](COc2cc(-c3ccc(C#N)cc3)c(-c3cnc4c(c3)oc(=O)n4C)n3cncc23)C1` [Example 57, (R)-4-(5-(3-methyl-2-oxo-2,3-dihydrooxazolo[4,5-b]pyridin-6-yl)-8-((1-methylpiperidin-3-yl)methoxy)imidazo[1,5-a]pyridin-6-yl)benzonitrile] has an IC50 of at most 50 nM.
In the case of `CN1CCC[C@@H](COc2cc(-c3ccc(C#N)cc3)c(-c3cnc4c(c3)ncn4C)n3cncc23)C1` [Example 58, (R)-4-(5-(3-methyl-3H-imidazo[4,5-b]pyridin-6-yl)-8-((1-methylpiperidin-3-yl)methoxy)imidazo[1,5-a]pyridin-6-yl)benzonitrile], the IC50 is reported as at most 50 nM.
`CN1CCC[C@@H](COc2cc(-c3ccc(C#N)cc3)c(-c3cnc4c(c3)OCCO4)n3cncc23)C1` [Example 62, (R)-4-(5-(2,3-dihydro-[1,4]dioxino[2,3-b]pyridin-7-yl)-8-((1-methylpiperidin-3-yl)methoxy)imidazo[1,5-a]pyridin-6-yl)benzonitrile] was tested, and the IC50 was at most 50 nM.
In the case of `CN1CCC[C@@H](COc2cc(-c3ccc(C#N)cc3)c(-c3ccc4c(c3)oc(=O)n4C)n3cncc23)C1` [Example 63, (R)-4-(5-(3-methyl-2-oxo-2,3-dihydrobenzo[d]oxazol-6-yl)-8-((1-methylpiperidin-3-yl)methoxy)imidazo[1,5-a]pyridin-6-yl)benzonitrile], the IC50 is reported as at most 50 nM.
Molecule `CN1CCC[C@@H](COc2cc(-c3ccc(C#N)cc3)c(-c3ccc4c(c3)CC(=O)N4C)n3cncc23)C1` [Example 64, (R)-4-(5-(1-methyl-2-oxoindolin-5-yl)-8-((1-methylpiperidin-3-yl)methoxy)imidazo[1,5-a]pyridin-6-yl)benzonitrile] has an IC50 of at most 50 nM.
`CN1CCC[C@@H](COc2cc(-c3ccc(C#N)cc3)c(-c3ccc4c(c3)OCC(=O)N4C)n3cncc23)C1` [Example 65, (R)-4-(5-(4-methyl-3-oxo-3,4-dihydro-2H-benzo[b][1,4]oxazin-7-yl)-8-((1-methylpiperidin-3-yl)methoxy)imidazo[1,5-a]pyridin-6-yl)benzonitrile] was tested, and the IC50 was at most 50 nM.
In the case of `CCN1CCC[C@@H](COc2cc(-c3ccc(C#N)cc3)c(-c3cnc4c(c3)OCCO4)n3cncc23)C1` [Example 67, (R)-4-(5-(2,3-dihydro-[1,4]dioxino[2,3-b]pyridin-7-yl)-8-((1-ethylpiperidin-3-yl)methoxy)imidazo[1,5-a]pyridin-6-yl)benzonitrile], the IC50 is reported as at most 50 nM.
In the case of `COc1ncc(-c2c(-c3ccc(C#N)cc3)cc(OC[C@@H]3CCCN(C)C3)c3cncn23)cc1F` [Example 70, (R)-4-(5-(5-fluoro-6-methoxypyridin-3-yl)-8-((1-methylpiperidin-3-yl)methoxy)imidazo[1,5-a]pyridin-6-yl)benzonitrile], the IC50 is reported as at most 50 nM.
`CN1CCC[C@@H](COc2cc(-c3ccc(C#N)cc3)c(-c3ccc(N4CCCC4=O)nc3)n3cncc23)C1` [Example 71, (R)-4-(8-((1-methylpiperidin-3-yl)methoxy)-5-(6-(2-oxopyrrolidin-1-yl)pyridin-3-yl)imidazo[1,5-a]pyridin-6-yl)benzonitrile] showed an IC50 of at most 50 nM.
`COc1ccc(-c2c(-c3ccc(C#N)cc3)cc(OC[C@@H]3CCCN(C)C3)c3cncn23)cn1` [Example 72, 4-(5-(6-methoxypyridin-3-yl)-8-{[(3R)-1-methylpiperidin-3-yl]methoxy}imidazo[1,5-a]pyridin-6-yl)benzonitrile] was tested, and the IC50 was at most 50 nM.
`CN1CCC[C@@H](COc2cc(-c3ccc(C#N)cc3)c(-c3cc(F)c(CO)c(F)c3)n3cncc23)C1` [Example 73, (R)-4-(5-(3,5-difluoro-4-(hydroxymethyl)phenyl)-8-((1-methylpiperidin-3-yl)methoxy)imidazo[1,5-a]pyridin-6-yl)benzonitrile] showed an IC50 of at most 50 nM.
`Cc1cc(-c2c(-c3ccc(C#N)cc3)cc(OC[C@@H]3CCCN(C)C3)c3cncn23)cc(F)c1CO` [Example 75, 4-(5-[3-fluoro-4-(hydroxymethyl)-5-methylphenyl]-8-{[(3R)-1-methylpiperidin-3-yl]methoxy}imidazo[1,5-a]pyridin-6-yl)benzonitrile] was tested, and the IC50 was at most 50 nM.
In the case of `Cc1ncc(-c2c(-c3ccc(C#N)cc3)cc(OC[C@@H]3CCCN(C)C3)c3cncn23)cc1O` [Example 76, 4-(5-(5-hydroxy-6-methylpyridin-3-yl)-8-{[(3R)-1-methylpiperidin-3-yl]methoxy}imidazo[1,5-a]pyridin-6-yl)benzonitrile], the IC50 is reported as at most 50 nM.
`CN1CCC[C@@H](COc2cc(-c3ccc(C#N)cc3)c(-c3ccc(C(C)(C)O)cc3)n3cncc23)C1` [Example 77, 4-(5-[4-(1-hydroxy-1-methylethyl)phenyl]-8-{[(3R)-1-methylpiperidin-3-yl]methoxy}imidazo[1,5-a]pyridin-6-yl)benzonitrile] showed an IC50 of at most 50 nM.
Molecule `CN1CCC[C@@H](COc2cc(-c3ccc(C#N)cc3)c(-c3cnc(N4CCOCC4)c(F)c3)n3cncc23)C1` [Example 78, 4-(5-(5-fluoro-6-morpholin-4-ylpyridin-3-yl)-8-{[(3R)-1-methylpiperidin-3-yl]methoxy}imidazo[1,5-a]pyridin-6-yl)benzonitrile] has an IC50 of at most 50 nM.
In the case of `Cc1cc(-c2c(-c3ccc(C#N)cc3)cc(OC[C@@H]3CCCN(C)C3)c3cncn23)ccc1CO` [Example 79, 4-(5-[4-(hydroxymethyl)-3-methylphenyl]-8-{[(3R)-1-methylpiperidin-3-yl]methoxy}imidazo[1,5-a]pyridin-6-yl)benzonitrile], the IC50 is reported as at most 50 nM.
`CN1CCC[C@@H](COc2cc(-c3ccc(C#N)cc3)c(-c3ccc(N(C)C)nc3)n3cncc23)C1` [Example 80, 4-(5-[6-(dimethylamino)pyridin-3-yl]-8-{[(3R)-1-methylpiperidin-3-yl]methoxy}imidazo[1,5-a]pyridin-6-yl)benzonitrile] was tested, and the IC50 was at most 50 nM.
For `Cc1cc(-c2c(-c3ccc(C#N)cc3)cc(OC[C@@H]3CCCN(C)C3)c3cncn23)cnc1C` [Example 81, 4-(5-(5,6-dimethylpyridin-3-yl)-8-{[(3R)-1-methylpiperidin-3-yl]methoxy}imidazo[1,5-a]pyridin-6-yl)benzonitrile], the IC50 was at most 50 nM.
For `CN1CCC[C@@H](COc2cc(-c3ccc(C#N)cc3)c(-c3ccc(CN(C)C(=O)N(C)C)c(F)c3)n3cncc23)C1` [Example 82, N-[4-(6-(4-cyanophenyl)-8-{[(3R)-1-methylpiperidin-3-yl]methoxy}imidazo[1,5-a]pyridin-5-yl)-2-fluorobenzyl]-N,N′,N′-trimethylurea], the IC50 was at most 50 nM.
For `CN(C)C1CCN(c2nc(-c3ccc(C#N)cc3)c(-c3ccc4c(c3)ncn4C)n3cncc23)CC1` [Example 83, 4-[8-[4-(dimethylamino)piperidin-1-yl]-5-(1-methyl-1H-benzimidazol-5-yl)imidazo[1,5-a]pyrazin-6-yl]benzonitrile], the IC50 was at most 50 nM.
`CN(C)C1CCN(c2nc(-c3ccc(C#N)cc3)c(-c3cnc4c(ccn4C)c3)n3cncc23)CC1` [Example 84, 4-(8-(4-(dimethylamino)piperidin-1-yl)-5-(1-methyl-1H-pyrrolo[2,3-b]pyridin-5-yl)imidazo[1,5-a]pyrazin-6-yl)benzonitrile] was tested, and the IC50 was at most 50 nM.
With `CN1CCC[C@@H](COc2nc(-c3ccc(C#N)cc3)c(-c3cnc4c(ccn4C)c3)n3cncc23)C1` [Example 85, 4-[8-{[(3R)-1-methylpiperidin-3-yl]methoxy}-5-(1-methyl-1H-pyrrolo[2,3-b]pyridin-5-yl)imidazo[1,5-a]pyrazin-6-yl]benzonitrile] the IC50 was at most 50 nM.
`Cc1cc(-c2c(-c3ccc(C#N)cc3)nc(OC[C@@H]3CCCN(C)C3)c3cncn23)cnc1C` [Example 86, 4-(5-(5,6-dimethylpyridin-3-yl)-8-{[(3R)-1-methylpiperidin-3-yl]methoxy}imidazo[1,5-a]pyrazin-6-yl)benzonitrile] was tested, and the IC50 was at most 50 nM.
